# Experiments:
# [1] = tested on: SF-539 (CNS cancer); assay: NCI-60 screen (SRB, 48 h); conditions: Homo sapiens
# [2] = tested on: TK-10 (Renal cancer); assay: NCI-60 screen (SRB, 48 h); conditions: Homo sapiens
# [3] = tested on: SK-MEL-5 (Melanoma); assay: NCI-60 screen (SRB, 48 h); conditions: Homo sapiens
# [4] = tested on: NCI/ADR-RES (Ovarian cancer); assay: NCI-60 screen (SRB, 48 h); conditions: Homo sapiens
# [5] = tested on: BT-549 (Breast cancer); assay: NCI-60 screen (SRB, 48 h); type: cell-based; conditions: Homo sapiens
# [6] = tested on: Ovarian Cancer subpanel; assay: NCI-60 screen, subpanel; conditions: Homo sapiens
# [7] = tested on: LOX IMVI (Melanoma); assay: NCI-60 screen (SRB, 48 h); type: cell-based; conditions: Homo sapiens
# [8] = tested on: HT29 (Colon cancer); assay: NCI-60 screen (SRB, 48 h); conditions: Homo sapiens
# [9] = tested on: SF-268 (CNS cancer); assay: NCI-60 screen (SRB, 48 h); conditions: Homo sapiens
# [10] = tested on: Colon Cancer subpanel; assay: NCI-60 screen, subpanel; conditions: Homo sapiens
# [11] = tested on: Leukemia subpanel; assay: cells; conditions: Homo sapiens
# [12] = tested on: OVCAR-3 (Ovarian cancer); assay: cells; conditions: Homo sapiens
# [13] = tested on: NCI-H460 (NSC lung cancer); assay: NCI-60 screen (SRB, 48 h); conditions: Homo sapiens
# [14] = tested on: MOLT-4 (Leukemia); assay: NCI-60 screen (SRB, 48 h); conditions: Homo sapiens
# [15] = tested on: NCI-H23 (NSC lung cancer); assay: NCI-60 screen (SRB, 48 h); conditions: Homo sapiens
# [16] = tested on: SK-MEL-28 (Melanoma); assay: NCI-60 screen (SRB, 48 h); conditions: Homo sapiens
# [17] = tested on: MDA-MB-435 (Melanoma); assay: NCI-60 screen (SRB, 48 h); type: cell-based
# [18] = tested on: Breast cancer subpanel; assay: NCI-60 screen, subpanel; conditions: Homo sapiens
# [19] = tested on: HOP-62 (NSC lung cancer); assay: NCI-60 screen (SRB, 48 h); conditions: Homo sapiens
# [20] = tested on: OVCAR-8 (Ovarian cancer); assay: NCI-60 screen (SRB, 48 h); conditions: Homo sapiens
# [21] = tested on: U251 (CNS cancer); assay: NCI-60 screen (SRB, 48 h); conditions: Homo sapiens
# [22] = tested on: DU-145 (Prostate cancer); assay: NCI-60 screen (SRB, 48 h); conditions: Homo sapiens
# [23] = tested on: MDA-MB-468 (Breast cancer); assay: cells; conditions: Homo sapiens
# [24] = tested on: OVCAR-4 (Ovarian cancer); assay: NCI-60 screen (SRB, 48 h); type: cell-based; conditions: Homo sapiens
# [25] = tested on: HS 578T (Breast cancer); assay: NCI-60 screen (SRB, 48 h); conditions: Homo sapiens
compound,measurement,setting,value
"CC1(C)NCCC[C@]2(C)[C@H]3C=CC4=C5C[C@@](C)(CO)CC[C@]5(C)CC[C@@]4(C)[C@]3(C)CC[C@@H]12 [Compound 6, azepano-glycyrrhetol-diene]",GI50,[1]; SF-539,2.69 µM
same,IC (TGI),"[1]; SF-539, 48 h, read-out: TGI",9.26 µM
same,CC50,"[1]; SF-539, read-out: LC50",33 µM
same,GI50,[2]; TK-10,2.66 µM
same,IC (TGI),"[2]; TK-10, 48 h, read-out: TGI",7.15 µM
same,CC50,"[2]; TK-10, read-out: LC50",27.3 µM
same,GI50,[3]; SK-MEL-5,2.14 µM
same,IC (TGI),"[3]; SK-MEL-5, 48 h, read-out: TGI",4.94 µM
same,CC50,"[3]; SK-MEL-5, read-out: LC50",14 µM
same,GI50,[4],2.02 µM
same,IC (TGI),"[4]; 48 h, read-out: TGI",4.52 µM
same,CC50,[4]; read-out: LC50,10.4 µM
same,GI50,[5]; BT-549,3.46 µM
same,IC (TGI),"[5]; BT-549, 48 h",12.7 µM
same,CC50,"[5]; BT-549, read-out: LC50 (the source's name)",39 µM
same,IC (TGI),"[6]; 48 h, read-out: TGI MG_MID",15.4 µM
same,GI50,[6]; read-out: GI50 MG_MID,4.67 µM
same,CC50,[6]; read-out: LC50 MG_MID,41.9 µM
same,IC (TGI),[7]; 48 h,6.76 µM
same,GI50,[7]; read-out: GI50,2.49 µM
same,CC50,[7]; read-out: LC50 (the source's name),29 µM
same,GI50,[8]; HT-29,3.25 µM
same,IC (TGI),"[8]; HT-29, 48 h, read-out: TGI",13.8 µM
same,CC50,"[8]; HT-29, read-out: LC50",41.8 µM
same,GI50,[9]; SF-268,3.27 µM
same,IC (TGI),"[9]; SF-268, 48 h, read-out: TGI",11.6 µM
same,CC50,"[9]; SF-268, read-out: LC50",49.6 µM
same,IC (TGI),"[10]; 48 h, read-out: TGI MG_MID",16.7 µM
same,GI50,[10]; read-out: GI50 MG_MID,5.11 µM
same,CC50,[10]; read-out: LC50 MG_MID,48.2 µM
same,IC (TGI),"[11]; 48 h, read-out: TGI MG_MID",10.2 µM
same,GI50,[11]; read-out: GI50 MG_MID,3.02 µM
same,CC50,[11]; read-out: LC50 MG_MID,55.5 µM
same,GI50,[12]; OVCAR-3,2.69 µM
same,IC (TGI),"[12]; OVCAR-3, 48 h, read-out: TGI",7.06 µM
same,CC50,"[12]; OVCAR-3, read-out: LC50",34.8 µM
same,GI50,[13]; NCI-H460,4.17 µM
same,IC (TGI),"[13]; NCI-H460, 48 h, read-out: TGI",15.2 µM
same,CC50,"[13]; NCI-H460, read-out: LC50",46.2 µM
same,GI50,[14]; MOLT-4,2.46 µM
same,IC (TGI),"[14]; MOLT-4, 48 h, read-out: TGI",6.8 µM
same,CC50,"[14]; MOLT-4, read-out: LC50",38.2 µM
same,GI50,[15]; NCI-H23,3.15 µM
same,IC (TGI),"[15]; NCI-H23, 48 h, read-out: TGI",12.5 µM
same,CC50,"[15]; NCI-H23, read-out: LC50",40 µM
same,GI50,[16]; SK-MEL-28,5.87 µM
same,IC (TGI),"[16]; SK-MEL-28, 48 h, read-out: TGI",18.4 µM
same,CC50,"[16]; SK-MEL-28, read-out: LC50",44 µM
same,GI50,"[17]; Homo sapiens, MDA-MB-435",3.76 µM
same,IC (TGI),"[17]; Homo sapiens, MDA-MB-435, 48 h, read-out: TGI",14 µM
same,CC50,"[17]; Homo sapiens, MDA-MB-435, read-out: LC50 (the source's name)",43 µM
same,Growth % of the Most Sensitive Cell Lines,"[17]; MDA-MB-435, 1 dose 10 µM",−95.56%
same,IC (TGI),"[18]; 48 h, read-out: TGI MG_MID",19.1 µM
same,GI50,[18]; read-out: GI50 MG_MID,6.68 µM
same,CC50,[18]; read-out: LC50 MG_MID,55.1 µM
same,GI50,[19]; HOP-62,2.3 µM
same,IC (TGI),"[19]; HOP-62, 48 h, read-out: TGI",5.16 µM
same,CC50,"[19]; HOP-62, read-out: LC50",16.7 µM
same,GI50,[20]; OVCAR-8,2.55 µM
same,IC (TGI),"[20]; OVCAR-8, 48 h, read-out: TGI",6.66 µM
same,CC50,"[20]; OVCAR-8, read-out: LC50",30.8 µM
same,GI50,[21]; U-251,4.17 µM
same,IC (TGI),"[21]; U-251, 48 h, read-out: TGI",15.9 µM
same,CC50,"[21]; U-251, read-out: LC50",45.5 µM
same,GI50,[22]; DU-145,2.25 µM
same,IC (TGI),"[22]; DU-145, 48 h, read-out: TGI",5.02 µM
same,CC50,"[22]; DU-145, read-out: LC50",13.8 µM
same,GI50,[23]; MDA-MB-468,10.4 µM
same,IC (TGI),"[23]; MDA-MB-468, 48 h, read-out: TGI",24 µM
same,CC50,"[23]; MDA-MB-468, read-out: LC50",55.1 µM
same,IC (TGI),"[24]; OVCAR-4, 48 h",20.8 µM
same,GI50,"[24]; OVCAR-4, read-out: GI50",5.63 µM
same,CC50,"[24]; OVCAR-4, read-out: LC50 (the source's name)",63.1 µM
same,GI50,[25],3.2 µM
same,IC (TGI),"[25]; 48 h, read-out: TGI",13.2 µM
same,CC50,[25]; read-out: LC50,71.2 µM
